Laboratory results: paper PMC7794376 (Nature Communications, 2021)
Converted amounts (≈) assume the structure as drawn. “And” between values parts separate entries of the source, which are not always exact repeats. Equal entries are not always repeated. Where two headings read alike, the source gives them in different places.

Assays:
M. tuberculosis H37Rv = assay: MIC determination in different media; type: cell-based; conditions: Mycobacterium tuberculosis
MtbCoaBC = MtbCoaBC (Mycobacterium tuberculosis, UniProt P9WNZ1); assay: biochemical; type: biochemical; conditions: for Activity R1 / Activity R3: slope of absorbance at 360 nm vs time (s); for activity at 0.0625 µM / activity at 0.25 µM / activity at 0.5 µM / activity at 1 µM / activity at 2 µM: relative to average DMSO CT; for IC50: read-out: IC50 EnzChek MtbCoaBC; for Activity % / Inhibition %: MtbCoaBC, replicates R1-R3; for Activity % / Activity % R1 / Activity % R3: relative to average CT; for reaction rate (slope of absorbance at 360 nm versus time), replicates: IC50 MtbCoaBC MlCoA; for reaction rate (slope of absorbance at 360 nm versus time), replicates / % inhibition, replicates / % remaining activity relative to uninhibited control, replicates: three replicates
[1] = MlCoA concentration 512 (log 2.70927; unit not given)
[2] = MlCoA concentration 1024 (log 3.0103; unit not given)

Sequence of MtbCoaBC (P9WNZ1 whole entry): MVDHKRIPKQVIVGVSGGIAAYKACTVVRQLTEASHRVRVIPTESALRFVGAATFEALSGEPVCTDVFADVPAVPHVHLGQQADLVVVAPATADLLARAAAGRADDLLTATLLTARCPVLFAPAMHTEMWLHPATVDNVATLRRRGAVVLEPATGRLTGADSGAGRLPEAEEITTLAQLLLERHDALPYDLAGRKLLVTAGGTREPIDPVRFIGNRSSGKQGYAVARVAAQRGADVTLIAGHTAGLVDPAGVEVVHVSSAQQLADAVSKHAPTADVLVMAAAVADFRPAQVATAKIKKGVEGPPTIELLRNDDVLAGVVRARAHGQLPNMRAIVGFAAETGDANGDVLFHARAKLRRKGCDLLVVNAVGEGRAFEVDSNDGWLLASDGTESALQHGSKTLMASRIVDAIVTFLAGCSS

Compound: O=c1cc(-c2ccc(O)cc2)oc2cc(O)c(O)c(O)c12 [2c]
- MIC (M. tuberculosis H37Rv; read-out: Minimum inhibitory concentration (MIC), 7H9/ADC/Glycerol): > 250 µM
- MIC (M. tuberculosis H37Rv; read-out: Minimum inhibitory concentration (MIC), 7H9/Cholesterol/Tyloxapol): > 250 µM
- MIC (M. tuberculosis H37Rv; read-out: Minimum inhibitory concentration (MIC), GAST/Fe): 125 µM (≈ 35.8 µg/mL)
- Activity R1 (MtbCoaBC; 0.03125 uM 2c, replicate R1): 0.0001739
- Activity R3 (MtbCoaBC; 0.03125 uM 2c, replicate R3): 0.000177
- inhibition at 0.0625 µM (MtbCoaBC; 0.0625 uM 2c, replicate R1, read-out: Inhibition % R1): 8.57%
- activity at 0.0625 µM (MtbCoaBC; 0.0625 uM 2c, replicate R1, read-out: Activity % R1): 91.4%
- Activity R1 (MtbCoaBC; 0.0625 uM 2c, replicate R1): 0.0001646
- inhibition at 0.0625 µM (MtbCoaBC; 0.0625 uM 2c, replicate R2, read-out: Inhibition % R2): 5.71%
- activity at 0.0625 µM (MtbCoaBC; 0.0625 uM 2c, replicate R2, read-out: Activity % R2): 94.3%
- inhibition at 0.0625 µM (MtbCoaBC; 0.0625 uM 2c, replicate R3, read-out: Inhibition % R3): 10.2%
- activity at 0.0625 µM (MtbCoaBC; 0.0625 uM 2c, replicate R3, read-out: Activity % R3): 89.8%
- Activity R3 (MtbCoaBC; 0.0625 uM 2c, replicate R3): 0.0001617
- inhibition at 0.25 µM (MtbCoaBC; 0.25 uM 2c, replicate R1, read-out: Inhibition % R1): 34%
- activity at 0.25 µM (MtbCoaBC; 0.25 uM 2c, replicate R1, read-out: Activity % R1): 66%
- Activity R1 (MtbCoaBC; 0.25 uM 2c, replicate R1): 0.0001189
- inhibition at 0.25 µM (MtbCoaBC; 0.25 uM 2c, replicate R2, read-out: Inhibition % R2): 32.6%
- activity at 0.25 µM (MtbCoaBC; 0.25 uM 2c, replicate R2, read-out: Activity % R2): 67.4%
- inhibition at 0.25 µM (MtbCoaBC; 0.25 uM 2c, replicate R3, read-out: Inhibition % R3): 28.9%
- activity at 0.25 µM (MtbCoaBC; 0.25 uM 2c, replicate R3, read-out: Activity % R3): 71.1%
- Activity R3 (MtbCoaBC; 0.25 uM 2c, replicate R3): 0.0001279
- inhibition at 0.5 µM (MtbCoaBC; 0.5 uM 2c, replicate R1, read-out: Inhibition % R1): 56.9%
- activity at 0.5 µM (MtbCoaBC; 0.5 uM 2c, replicate R1, read-out: Activity % R1): 43.1%
- Activity R1 (MtbCoaBC; 0.5 uM 2c, replicate R1): 0.000077692
- inhibition at 0.5 µM (MtbCoaBC; 0.5 uM 2c, replicate R2, read-out: Inhibition % R2): 60.3%
- activity at 0.5 µM (MtbCoaBC; 0.5 uM 2c, replicate R2, read-out: Activity % R2): 39.7%
- inhibition at 0.5 µM (MtbCoaBC; 0.5 uM 2c, replicate R3, read-out: Inhibition % R3): 53.5%
- activity at 0.5 µM (MtbCoaBC; 0.5 uM 2c, replicate R3, read-out: Activity % R3): 46.5%
- Activity R3 (MtbCoaBC; 0.5 uM 2c, replicate R3): 0.000083810
- inhibition at 1 µM (MtbCoaBC; 1 uM 2c, replicate R1, read-out: Inhibition % R1): 77.6%
- activity at 1 µM (MtbCoaBC; 1 uM 2c, replicate R1, read-out: Activity % R1): 22.4%
- Activity R1 (MtbCoaBC; 1 uM 2c, replicate R1): 0.000040344
- inhibition at 1 µM (MtbCoaBC; 1 uM 2c, replicate R2, read-out: Inhibition % R2): 82.6%
- activity at 1 µM (MtbCoaBC; 1 uM 2c, replicate R2, read-out: Activity % R2): 17.4%
- inhibition at 1 µM (MtbCoaBC; 1 uM 2c, replicate R3, read-out: Inhibition % R3): 72.1%
- activity at 1 µM (MtbCoaBC; 1 uM 2c, replicate R3, read-out: Activity % R3): 27.9%
- Activity R3 (MtbCoaBC; 1 uM 2c, replicate R3): 0.000050204
- inhibition at 2 µM (MtbCoaBC; 2 uM 2c, replicate R1, read-out: Inhibition % R1): 91.9%
- activity at 2 µM (MtbCoaBC; 2 uM 2c, replicate R1, read-out: Activity % R1): 8.07%
- Activity R1 (MtbCoaBC; 2 uM 2c, replicate R1): 0.000014525
- inhibition at 2 µM (MtbCoaBC; 2 uM 2c, replicate R2, read-out: Inhibition % R2): 95%
- activity at 2 µM (MtbCoaBC; 2 uM 2c, replicate R2, read-out: Activity % R2): 5.02%
- inhibition at 2 µM (MtbCoaBC; 2 uM 2c, replicate R3, read-out: Inhibition % R3): 84.9%
- activity at 2 µM (MtbCoaBC; 2 uM 2c, replicate R3, read-out: Activity % R3): 15.1%
- Activity R3 (MtbCoaBC; 2 uM 2c, replicate R3): 0.000027204
- activity at 0.03125 µM (MtbCoaBC; read-out: Activity % R1): 96.6%
- activity at 0.03125 µM (MtbCoaBC; read-out: Activity % R2): 96.7%
- activity at 0.03125 µM (MtbCoaBC; read-out: Activity % R3): 98.3%
- IC50 (MtbCoaBC): 0.41 ± 0.03 µM
- inhibition at 0.03125 µM (MtbCoaBC; read-out: Inhibition % R1): 3.4%
- inhibition at 0.03125 µM (MtbCoaBC; read-out: Inhibition % R2): 3.27%
- inhibition at 0.03125 µM (MtbCoaBC; read-out: Inhibition % R3): 1.68%

Compound: CC(C)(COP(=O)(O)OP(=O)(O)OC[C@H]1O[C@@H](n2cnc3c(N)ncnc32)[C@H](O)[C@@H]1OP(=O)(O)O)[C@@H](O)C(=O)NCCC(=O)NCCSC(=O)CC(=O)O [MlCoA, malonyl-CoA]
- Activity % (MtbCoaBC; 8 uM MlCoA): 92.1% and 91.15% and 93.21%
- Inhibition % (MtbCoaBC; 8 uM MlCoA): 8.85% and 6.79% and 7.90%
- Activity % (MtbCoaBC; 16 uM MlCoA): 76.14% and 76.7% and 75.8%
- Inhibition % (MtbCoaBC; 16 uM MlCoA): 23.30% and 24.20% and 23.86%
- Activity % (MtbCoaBC; 32 uM MlCoA): 63.4% and 64.14% and 61%
- Inhibition % (MtbCoaBC; 32 uM MlCoA): 35.86% and 39.00% and 36.60%
- Activity % (MtbCoaBC; 64 uM MlCoA): 43.31% and 44.56% and 41.61%
- Inhibition % (MtbCoaBC; 64 uM MlCoA): 55.44% and 58.39% and 56.69%
- Activity % (MtbCoaBC; 128 uM MlCoA): 23.32% and 26.33% and 20.47%
- Inhibition % (MtbCoaBC; 128 uM MlCoA): 73.67% and 79.53% and 76.68%
- Activity % (MtbCoaBC; 256 uM MlCoA): 12.52% and 10.98% and 14.64%
- Inhibition % (MtbCoaBC; 256 uM MlCoA): 89.02% and 85.36% and 87.48%
- IC50 (MtbCoaBC; CoaB activity, […] CTP, […] PPA, 500 µM L-cysteine, average of three independent experiments ± SD): 48 ± 3 µM
- reaction rate (slope of absorbance at 360 nm versus time), replicates (MtbCoaBC; [1]): 0.000003647 and 0.000000222 and 0.000004502
- % inhibition, replicates (MtbCoaBC; [1]): 99.87 and 97.43 and 97.92
- % remaining activity relative to uninhibited control, replicates (MtbCoaBC; [1]): 2.081 and 0.1265 and 2.569
- reaction rate (slope of absorbance at 360 nm versus time), replicates (MtbCoaBC; [2]): 0.000003588 and 0.000000204 and 0.000003109
- % inhibition, replicates (MtbCoaBC; [2]): 99.88 and 98.23 and 97.95
- % remaining activity relative to uninhibited control, replicates (MtbCoaBC; [2]): 2.047 and 0.1162 and 1.774

Compound: succinyl-CoA [SucCoA]
- Activity % R1 (MtbCoaBC; 8 uM SucCoA, replicate R1): 96.11%
- Activity % R3 (MtbCoaBC; 8 uM SucCoA, replicate R3): 95.1%
- Inhibition % R1 (MtbCoaBC; 8 uM SucCoA, replicate R1): 3.89%
- Inhibition % R3 (MtbCoaBC; 8 uM SucCoA, replicate R3): 4.90%
- Activity R1 (MtbCoaBC; 8 uM SucCoA, replicate R1): 0.0001648
- Activity R3 (MtbCoaBC; 8 uM SucCoA, replicate R3): 0.0001631
- Activity % R1 (MtbCoaBC; 16 uM SucCoA, replicate R1): 73.57%
- Activity % R3 (MtbCoaBC; 16 uM SucCoA, replicate R3): 71.48%
- Inhibition % R1 (MtbCoaBC; 16 uM SucCoA, replicate R1): 26.43%
- Inhibition % R3 (MtbCoaBC; 16 uM SucCoA, replicate R3): 28.52%
- Activity R1 (MtbCoaBC; 16 uM SucCoA, replicate R1): 0.0001261
- Activity R3 (MtbCoaBC; 16 uM SucCoA, replicate R3): 0.0001226
- Activity % R1 (MtbCoaBC; 32 uM SucCoA, replicate R1): 58.32%
- Activity % R3 (MtbCoaBC; 32 uM SucCoA, replicate R3): 59.99%
- Inhibition % R1 (MtbCoaBC; 32 uM SucCoA, replicate R1): 41.68%
- Inhibition % R3 (MtbCoaBC; 32 uM SucCoA, replicate R3): 40.01%
- Activity R1 (MtbCoaBC; 32 uM SucCoA, replicate R1): 0.000099995
- Activity R3 (MtbCoaBC; 32 uM SucCoA, replicate R3): 0.0001029
- Activity % R1 (MtbCoaBC; 64 uM SucCoA, replicate R1): 30.98%
- Activity % R3 (MtbCoaBC; 64 uM SucCoA, replicate R3): 29.66%
- Inhibition % R1 (MtbCoaBC; 64 uM SucCoA, replicate R1): 69.02%
- Inhibition % R3 (MtbCoaBC; 64 uM SucCoA, replicate R3): 70.34%
- Activity R1 (MtbCoaBC; 64 uM SucCoA, replicate R1): 0.000053122
- Activity R3 (MtbCoaBC; 64 uM SucCoA, replicate R3): 0.000050860
- Activity % R1 (MtbCoaBC; 128 uM SucCoA, replicate R1): 16.56%
- Activity % R3 (MtbCoaBC; 128 uM SucCoA, replicate R3): 18.74%
- Inhibition % R1 (MtbCoaBC; 128 uM SucCoA, replicate R1): 83.44%
- Inhibition % R3 (MtbCoaBC; 128 uM SucCoA, replicate R3): 81.26%
- Activity R1 (MtbCoaBC; 128 uM SucCoA, replicate R1): 0.000028403
- Activity R3 (MtbCoaBC; 128 uM SucCoA, replicate R3): 0.000032131
- Activity % R1 (MtbCoaBC; 256 uM SucCoA, replicate R1): 6.801%
- Activity % R3 (MtbCoaBC; 256 uM SucCoA, replicate R3): 8.41%
- Inhibition % R1 (MtbCoaBC; 256 uM SucCoA, replicate R1): 93.20%
- Inhibition % R3 (MtbCoaBC; 256 uM SucCoA, replicate R3): 91.59%
- Activity R1 (MtbCoaBC; 256 uM SucCoA, replicate R1): 0.000011661
- Activity R3 (MtbCoaBC; 256 uM SucCoA, replicate R3): 0.000014421
